Experimental data as given in patent publication US20150094229A1, “METHODS FOR THE SCREENING OF ANT[…]” (priority 2005, published 2015).
“Also recorded” adds a separate entry of the source. Where a SMILES comes first, the peptide text is derived from it. Where no end group is shown, it is not given here. [ ]: non-standard residue; d: D form.

How the values were obtained:
[1] = tested on: L,D-transpeptidase of E. faecium M512 (Ldtfm); test: Standard radioactive exchange assay (Ac2-L-Lys-D-Ala and D-[14C]Ala); type: biochemical, Enterococcus faecium; details: for use as donor: formation of radioactive peptides with D-[14C]Ala as the acceptor: 3 μg Ldtfm, 60 min, donor 1-5 mM
Excerpt: (§1) FIG. 9 (Ex FIG. 2). Identification and characterization of the L,D-transpeptidase of E. faecium M512. (A) Purification of the L,D-transpeptidase from an E. faecium M512 extract (lane 1) led to partial purification of a 48-kDa protein (lane 2). (B) The open reading frame for the 48-kDa protein was identified based on N-terminal sequencing ([…] [SEQ ID No 20], underlined) and similarity searches in the partial genome sequence of E. faecium. The partially purified 48-kDa protein corresponded to a proteolytic fragment since the sequence encoding its N-terminus was not preceded by a translation initiation codon. The upstream sequence contained a single likely translation initiation site (ACTTAAggag[…]atg [SEQ ID No 21]), consisting of an ATG initiation codon preceded by a putative ribosome binding site (lower case). The proteolytic cleavage removed the first 118 residues of the protein, including a cluster of hydrophobic residues at positions 13 to 28 (italicized), which could correspond to a membrane anchor. The C-terminus of Ldtfm (positions 340 to 466; bold) was related to a family of 341 sequences from eubacteria appearing in the Protein Families Database of Alignments under the pfam accession number PF03734. Ser439 and Cys442 (asterisks) are potential catalytic residues. (C) The portion of the open reading frame encoding the soluble protein partially purified form the E. faecium extract (positions 119 to 466) was cloned into E. coli and Ldtfm was purified with an overall yield of 3 mg per liter of culture. (D) The purified protein was active in an exchange reaction which assays for the capacity of the enzyme to catalyze cleavage of the L-Lys-D-Ala peptide bond of the model donor dipeptide substrate N^α,N^ε-diacetyl-L-lysyl-D-alanine (Ac2-L-Lys-D-Ala) and formation of a peptide bond between Ac2-L-Lys and D-[^14C]Ala. […] (F) The exchange assay was also performed with non-radioactive 2-amino and 2-hydroxy acids based on detection of the products by mass spectrometry and determination of their structure by tandem mass spectrometry, as exemplified by the fragmentation of Ac2-L-Lys-D-Met (m/z of 362.24). Loss of a C-terminal D-Met and of additional H2O led to ions at m/z 213.14 and 185.14, respectively. Ions at m/z 84.10 and 126.11 correspond to the immonium of L-Lys and its acetylated form, respectively.
Preferably, the L,D-transpeptidase activity is assessed by performing a standard exchange assay that is based on incubation of non-radioactive Ac2-L-Lys-D-Ala and D-[^14C]Ala and determination of Ac2-L-Lys-D[^14C]Ala formed by the L,D-transpeptidase catalytic activity, such as disclosed by Mainardi et al. (J. L. Mainardi et al., J. Biol. Chem. 277, 35801 (2002)) as well as in the examples herein.
In an illustrative embodiment of said standard exchange assay, a reaction mixture is provided, which reaction mixture contains (i) purified L,D-transpeptidase, (ii) Ac2-L-Lys-D-Ala, (iii) D-[^14C]Ala and (iv) optionally the candidate inhibitor compound. Then the enzyme reaction is performed until completion, generally during a time period of […], most preferably […], at a temperature range comprised between 36° C. and 38° C., advantageously between 36.5° C. and 37.5° C., most preferably at 37° C. Then, the enzyme reaction is stopped, for example by boiling the resulting reaction product mixture for a time period sufficient to inactivate the enzyme, such as for a period of time ranging from 3 min to 20 min, most preferably a period of time of about 15 min.
Then, the resulting reaction product mixture is centrifuged and a sample collected from the supernatant of centrifugation is analysed by chromatography, preferably by carrying out a reverse phase high-pressure liquid chromatography (rpHPLC), most preferably with isocratic elution.
Detection of the labeled reaction product resulting from the L,D-transpeptidase catalytic activity may be performed simultaneously with said chromatographic step. […]

Ldtfm [2] = test: Exchange assay with non-radioactive 2-amino and 2-hydroxy acid acceptors, products detected by mass spectrometry; type: biochemical, Enterococcus faecium; details: for Product Relative intensity (%): ionic current intensity (product/product + substrate), donor Ac2-L-Lys-D-Ala 0.3 mM, acceptor 0.3 mM, Ldtfm (3 g), 1 h at 37° C.; for use as acceptor substrate in the exchange reaction with Ac2-L-Lys-D-Ala as the donor: result in words
Excerpt: as §1
To gain insight in the activity of Ldtfm, various 2-amino and 2-hydroxy acids were tested as potential acceptor substrates (Table 2) in an exchange reaction using the model dipeptide substrate Ac2-L-Lys-D-Ala as the donor (FIG. 9F). […] Hydrolysis of the C-terminal D-Ala of Ac2-L-Lys-D-Ala was not detected in the presence of a suitable acceptor substrate, indicating a biosynthetic function for Ldtfm, in contrast to the previously characterized L,D-carboxypeptidase involved in peptidoglycan recycling in E. coli (Templin et al., 1999).

[3] = target: T1, D-aspartate ligase (membrane or cytoplasmic extracts of E. faecium D359V8) (Enterococcus faecium, UniProt H8L902); test: D-aspartate ligase assay (in vitro addition of D-aspartate onto UDP-MurNac-pentapeptide); type: biochemical; details: 60 μg membrane or cytoplasmic extracts, 2 hours at 37° C.
T1 construct: membrane or cytoplasmic extracts (60 μg); endogenous in cells; host or cells: Enterococcus faecium D359V8, crude membrane and cytoplasmic extracts
Experimental: FIG. 2. […] Crude cytoplasmic extract (60 μg of protein) of E. faecium D359V8 were incubated for 2 h with UDP-MurNac-pentapeptide ([…]), D-[^14C]aspartic acid (0.11 mM, 55 mCi/mmol), ATP (20 mM) and MgCl2 (50 mM). D-[^14C]aspartic acid was separated from [^14C]UDP-MurNac-hexapeptide by descending paper chromatography. […] (+) presence of cytoplasmic extracts; (−) absence of crude extracts.
The assay was performed in a total volume of 25 μl containing Tris-Hcl (100 mM, pH 8.5), MgCl2 (50 mM), ATP (20 mM), D-[^14C]aspartic acid (0.11 mM, 55 mCi/mmol, Isobio, Fleurus, Belgium), UDP-MurNac-pentapeptide (0.15 mM) purified from S. aureus as previously described (Billot-Klein et al., 1997), and membrane or cytoplasmic extracts (60 μg). The reaction mixture was incubated 2 h at 37° C. and the reaction was stopped by boiling the samples for 3 min. […] The products of the reaction were also separated by reverse phase high-pressure liquid chromatography (rpHPLC) on a Hypersil C18 column ([…], 4.6×250 […], Interchrom, Montlugon, France) at a flow rate of 0.5 ml/min using isocratic elution (10 mM ammonium acetate, pH 5.0) and detected by the absorbance at 262 nm and liquid scintillation with a Radioflow Detector (LB508; Perkin Elmer, Courtaboeuf, France) coupled to the HPLC apparatus (L-62000A; Merck, Nogent-Sur-Marne, France). […]

E. faecium M512 = details: mutant E. faecium M512; cited from earlier work
Ldtfm [4] = test: In vitro transpeptidation (formation of dimers from monomeric muropeptides, mass spectrometry); type: biochemical, Enterococcus faecium; details: pool of three muropeptides, Ldtfm 3 μg, 2 h at 37° C.
Experimental: FIG. 10 (Ex FIG. 3). […] (A) Ldtfm was incubated with a pool of three monomeric muropeptides containing the disaccharide GlcNAc-MurNAc substituted by three different stem peptides. […] Tetrapeptide-iAsn, L-Ala-D-iGln-L-(M-D-iAsn)Lys-D-Ala; Tripeptide-iAsn, L-Ala-D-iGln-L-(M-D-iAsn)Lys; Tetrapeptide, L-Ala-D-iGln-L-Lys-D-Ala. (B) Fragmentation was performed on the muropeptide lactoyl dimer at m/z 1118.5 which was obtained by ammonium hydroxide treatment of the dimer with a monoisotopic mass of 1927.88. The treatment cleaved off the disaccharide and converted D-iAsn into D-iAsp. (C) Structure of the dimer and inferred fragmentation pattern. […]
To assay for in vitro transpeptidation, the L,D-transpeptidase (3 μg) was incubated with the momomeric muropeptides GlcNAc-MurNAc-L-Ala-D-iGln-L-(M-D-iAsn)Lys-D-Ala (25 nmoles), GlcNAc-MurNAc-L-Ala-D-iGln-L-(M-D-iAsn)Lys (5 nmoles) and GlcNAc-MurNAc-L-Ala-D-iGln-L-Lys-D-Ala (5 nmoles) for 2 h at 37° C. in 25 μl of 5 mM sodium phosphate buffer (pH 6.0). The reaction was stopped by boiling the sample for 3 min and the mixture was centrifuged (10,000×g, 2 min). […] For tandem mass spectrometry analysis, the remaining of the reaction mixture was treated with ammonium hydroxyde to cleave the ether link internal to MurNAc (Arbeloa et al., 2004). The conditions for fragmentation of the resulting lactoyl-peptides with N2 as the collision gas were as previously described (Arbeloa et al., 2004).

CC(=O)NCCCC[C@H](NC(C)=O)C(=O)N[C@H](C)C(=O)O [Ac2-L-Lys-D-Ala, N^α,N^ε-diacetyl-L-lysyl-D-alanine] (Ac-Lys(Ac)-[dA]-OH)
use as donor: formation of radioactive peptides with D-[14C]Ala as the acceptor [1]: used as donors

C[C@@H](O)C(=O)O [D-lactic acid]
Product Relative intensity (%) (Ldtfm [2]): 37%
use as acceptor substrate in the exchange reaction with Ac2-L-Lys-D-Ala as the donor (Ldtfm [2]): Formation of depsipeptides

O=C(O)C[C@@H](O)C(=O)O [D-malic acid]
Product Relative intensity (%) (Ldtfm [2]): 10%
use as acceptor substrate in the exchange reaction with Ac2-L-Lys-D-Ala as the donor (Ldtfm [2]): Formation of depsipeptides

NCC(=O)O [Glycine]
Product Relative intensity (%) (Ldtfm [2]): 15%

N[C@@H](CC(=O)O)C(=O)O [L-[^14C]aspartate]
formation of hexapeptide when D-[14C]aspartate is replaced [3]: No hexapeptide was formed

CC(=O)N[C@H]1[C@@H](OP(=O)(O)OP(=O)(O)OC[C@H]2O[C@@H](n3ccc(=O)[nH]c3=O)[C@H](O)[C@@H]2O)O[C@H](CO)[C@@H](O)[C@@H]1O[C@H](C)C(=O)N[C@@H](C)C(=O)N[C@H](CCC(=O)N[C@@H](CCCCN)C(=O)N[C@H](C)C(=O)N[C@H](C)C(=O)O)C(=O)O [UDP-MurNAc-pentapeptide, UDP-N-acetylmuramyl-L-Ala-D-iGlu-L-Lys-D-Ala-D-Ala]
use as donor: formation of radioactive peptides with D-[14C]Ala as the acceptor [1]: not detected

CC1(C)S[C@@H]2[C@H](NC(=O)[C@H](N)c3ccccc3)C(=O)N2[C@H]1C(=O)O [ampicillin]
minimal inhibitory concentration (E. faecium M512): > 2000 µg/mL
inhibition of Ldtfm in the exchange assay ([1]; Ldtfm 3 μg, Ac2-L-Lys-D-Ala 0.3 mM, D-[14C]Ala 0.15 mM, various concentration of ampicillin): absence of inhibition; also recorded: not inhibited

GlcNAc-MurNAc-L-Ala-D-iGln-L-(M-D-iAsn)Lys-D-Ala [tetrapeptide-iAsn]
use as donor in formation of dimers (Ldtfm [4]): formation of dimers

GlcNAc-MurNAc-L-Ala-D-iGln-L-Lys-D-Ala
use as acceptor in formation of dimers (Ldtfm [4]): not used as an acceptor
use as donor in formation of dimers (Ldtfm [4]): formation of dimers

GlcNAc-MurNAc-L-Ala-D-iGlu-L-(N^ε-D-iAsn)Lys-D-Ala [GlcNAc-MurNAc-tetrapeptide-iAsn]
use as donor: formation of radioactive peptides with D-[14C]Ala as the acceptor [1]: used as donors

GlcNAc-MurNAc-L-Ala-D-iGlu-L-(N^ε-D-iAsn)Lys-D-Ala-D-Ala [GlcNAc-MurNAc-pentapeptide-iAsn]
use as donor: formation of radioactive peptides with D-[14C]Ala as the acceptor [1]: not detected

L-Ala-D-iGlu-L-Lys-D-Ala (A[diGlu]K[dA]) [tetrapeptide]
use as donor: formation of radioactive peptides with D-[14C]Ala as the acceptor [1]: used as donors

L-Ala-D-iGlu-L-Lys-D-Ala-D-Ala [pentapeptide]
use as donor: formation of radioactive peptides with D-[14C]Ala as the acceptor [1]: not detected

N^α,N^ε-diacetyl-L-lysine-D-alanyl-D-alanine [Ac2-L-Lys-D-Ala-D-Ala]
use as donor: formation of radioactive peptides with D-[14C]Ala as the acceptor [1]: not detected

UDP-MurNAc-L-Ala-D-iGlu-L-Lys-D-Ala [UDP-MurNAc-tetrapeptide]
use as donor: formation of radioactive peptides with D-[14C]Ala as the acceptor [1]: used as donors
